From paper PMC5915154, “Aloe-emodin as drug candidate for cancer therapy” (Oncotarget, 2018)

What was measured:
[1] = system: mRNA expression (DUSP6, HHEX, MCMDC2, CRCP) in CCRF-CEM cells; assay: qPCR validation of microarray data; format: cell-based, human; settings: CCRF-CEM treated vs untreated, normalized to GAPDH
Procedure: Primer sequences of HHEX, MCMDC2 and CRCP were designed using NCBI and GenScript Real Time PCR Primer Design (https://www.genscript.com/ssl-bin/app/primer) websites. DUSP6, HHEX, MCMDC2 and CRCP primers were synthesized by Eurofins MWG Operon (Ebersberg, Germany) and their sequence specificities were checked by NCBI Primer-Blast (http://www.ncbi.nlm.nih.gov/tools/primer-blast). The reaction properties of primers were calculated by Eurofins genomics (https://www.eurofinsgenomics.eu/en/dna-rna-oligonucleotides/oligo-design-more/oligo-property-scan.aspx). The primer sequences were as follows: DUSP6, forward (5′–3′): […], reverse (5′–3′): […] [75]; HHEX, forward: […], reverse: […]; MCMDC2, forward: […], reverse: […]; CRCP, forward: […], reverse: […]. Total RNA was isolated by InviTrap Spin Universal RNA Mini kit (Stratec Molecular) according to the manufacturer’s instruction. One microgram RNA was converted to cDNA using RevertAid H Minus First Strand cDNA Synthesis Kit (Thermo Scientific). The mRNA levels were analyzed by using of 5×Hot Start Tag EvaGreen® qPCR Mix (no ROX) (Axon Labortechnik, Kaiserslautern, Germany) and CFX384™ Real-Time PCR Detection System (Bio-Rad, Munich, Germany). RT-PCR was performed with an initial denaturation at 95°C for 10 second followed by 40 cycles including strand separation at 95°C for 15 s, annealing at 62°C for 30 s and extension at […] for 1 min. The GAPDH, HPRT1 and RLP13 genes were used as housekeeping genes. The expression data were normalized using Bestkeeper software. […] Therefore, GAPDH was used for normalization. Forward and reverse primer sequences of GAPDH were […] for forward and […] for reverse, respectively.
Furthermore, forward and reverse primer sequences of HPRT1 were […] for forward and […] for reverse as well as of RLP13A were TATGCTGCCCCACAAAACC for forward and […] for reverse, respectively. • The quantification method was done as follow: • ΔCt = Ct gene test – Ct endogenous control. • ΔΔCt = ΔCt sample1 – ΔCt calibrator. • RQ = Relative quantification = 2-ΔΔCt.
The RQ is the fold-change compared to the calibrator (untreated sample, time zero, etc.). The calibrator has an RQ value of 1. All samples were compared to the calibrator.

[2] = system: U87.MG glioblastoma cells; assay: Resazurin reduction assay, U87.MG; format: cell-based; settings: Homo sapiens, U-87 MG, 72 h
Text: (§1) The cell lines used in the present work, their origins and maintenance conditions were previously reported. In brief, drug-sensitive CCRF-CEM and multidrug resistant P-glycoprotein-over-expressing CEM/ADR5000 leukemia cells, MDA-MB-231-pcDNA3 breast cancer cells and their transfectant subline MDA-MB-231-BCRP clone 23, HCT116 (p53^+/+) colon cancer cells and its knockout clone HCT116 (p53^-/-), U87.MG glioblastoma multiform cells and their transfectant subline U87.MGΔEGFR as well as HEK293 human embryonic kidney cells transfected with or without a cDNA for ABCB5 were used. The human peripheral mononuclear cells (PMNC) were isolated from fresh blood samples of a healthy donor by using Histopaque® (Sigma-Aldrich, Taufkirchen, Germany).
(§2) Resazurin reduction assay was conducted to test the cytotoxicity of the compounds. This assay is based on the reduction of resazurin to resorufin by viable cells. […] Briefly, aliquots of 0.5×10^4 adherent cells which were allowed to attach overnight and 1×10^4 suspension cells per well were seeded in 96-well-plates with or without the addition of varying concentrations of the test substance to get a total volume of 200 μL/well. After 72 h incubation and addition of resazurin (Sigma-Aldrich) for 4 h, staining was measured by an Infinite M2000 ProTM plate reader (Tecan, Germany) using an excitation wavelength of 544 nm and an emission wavelength of 590 nm. […]

[3] = system: HEK293 human embryonic kidney cells; assay: Resazurin reduction assay, HEK293; format: cell-based; settings: 72 h
Text: as §1, §2

[4] = system: multidrug-resistant P-glycoprotein-overexpressing CEM/ADR5000 leukemia cells; assay: Resazurin reduction assay, CEM/ADR5000; format: cell-based, human; settings: Homo sapiens; CEM/ADR5000, resazurin assay, 72 h
Text: as §1
Resazurin reduction assay was conducted to test the cytotoxicity of the compounds. This assay is based on the reduction of resazurin to resorufin by viable cells. […] Briefly, aliquots of 0.5×10^4 adherent cells which were allowed to attach overnight and 1×10^4 suspension cells per well were seeded in 96-well-plates with or without the addition of varying concentrations of the test substance to get a total volume of 200 μL/well. After 72 h incubation and addition of resazurin (Sigma-Aldrich) for 4 h, staining was measured by an Infinite M2000 ProTM plate reader (Tecan, Germany) using an excitation wavelength of 544 nm and an emission wavelength of 590 nm. Each assay was independently performed for at least three times, with six parallel replicates each. The protocol has been recently reported. Fifty percent inhibition concentrations (IC50) represent the drug concentrations required to inhibit 50% of cell proliferation, which were fitted with nonlinear regression using GraphPad® Prism7.

CCRF-CEM cells = assay: Protease viability marker assay (GF-AFC); format: cell-based; settings: Homo sapiens, 72 h
Procedure: The protease viability marker assay was performed to exclude the possibility that the cytotoxicity of Aloe-emodin measured by the resazurin assay was artificially influenced by any non-intended interaction with Aloe-emodin-induced ROS generation. The assay measures the protease activity within living cells. The protease activity is restricted to intact viable cells and is measured using a flourogenic, cell permeant, peptide substrate (glyxyl-phenylalanyl-aminoflourocoumarin; GF-AFC). The substrate enters intact cells, where it is cleaved by proteases to generate a fluorescent signal proportional to the number of living cells. Briefly, CCRF-CEM cells (2×10^4cells/well) were seeded in 96 well plate. Aloe-emodin was added in a dose dependent manner (0.001 – 100 μM). After 72 h, 100 μL of GF-AFC substrate (Promega, Madison, USA) were added to each well, cells were incubated for 30 min at 37°C. Using Infinite M2000Pro™ plate reader (Tecan, Crailsheim, Germany), the fluorescent intensity was measured at an excitation wavelength 400 nm, and emitted light was collected at 505 nm.

## O=C1c2cccc(O)c2C(=O)c2c(O)cc(CO)cc21 [Aloe-emodin]
[1]
  qPCR data (FC), CRCP: -2.63 FC
  qPCR data (FC), DUSP6: 1.40 FC
  qPCR data (FC), HHEX: 2.23 FC
  qPCR data (FC), MCMDC2: -2.47 FC
[2]
  IC50: 21.7 µM
[3]
  IC50: 16.9 µM
[4]
  IC50: 12.8 µM
CCRF-CEM cells
  IC50: 13.8 µM
